Key:
IL-1β and iNOS = assay: mRNA expression of IL-1β and iNOS in BV-2 microglial cells (RT-PCR, real-time PCR); format: cell-based; conditions: 10 μM peptide 1 h
Description: FIG. 4(A-S). Effect of wtTIDM and mTIDM peptides on the induction of NF-κB activation and the expression of proinflammatory molecules in microglial cells. BV-2 microglial cells preincubated with 10 μM wtTIDM/mTIDM peptides for 1 h were stimulated with 1 μM fibrillar Aβ1-42 (A-C), 1 μM MPP+ (D-F), 250 ng/ml LTA (G-I), […] LPS (J-L), 1 μM flagellin (M-O), and 1 μM CpG DNA (P-R) under serum-free condition. After 1 h of stimulation, the activation of NF-κB was monitored in nuclear extracts by EMSA (A, fibrillar Aβ; D, MPP+; G, LTA; J, LPS; M, flagellin, P; CpG DNA). After 4 h of stimulation, the mRNA expression of IL-1β (B, E, H, K, N, & Q) and iNOS (C, F, I, L, O, & R) was monitored by real-time PCR (B-C, fibrillar Aβ; E-F, MPP+; H-I, LTA; K-L, LPS; N-O, flagellin; Q-R, CpG DNA) (n=2 replicates/dose in 3 independent experiments). ap<0.001 vs control; bp<0.001 vs stimuli by two-sample t-tests. […]
FIG. 13 (A-F). […] After 4 h of stimulation, the mRNA expression of IL-1β and iNOS was monitored by RT-PCR (n=2 replicates/condition in 3 independent experiments).
FIG. 14 (A-D). […] A) After 1 h of stimulation, the activation of NF-κB was monitored in nuclear extracts by EMSA. […]
DNase-digested RNA was analyzed by real-time PCR in the AβI-Prism7700 sequence detection system (Applied Biosystems, Foster City, CA) as described earlier (23, 57).

[1] = biological target: T1, interaction between newly-formed cTLR2 and MyD88 (Mus musculus, UniProt Q9QUN7); assay: MyD88 immunoprecipitation / c-Myc western blot in BV-2 cells transduced with pLenti-cMyc-cTlr2; format: cell-based; conditions: transduced BV-2 cells, fibrillar Aβ1-42 for 1 h
T1 construct: The cTLR2 (640-784 amino acids) tagged with c-myc was cloned in lenti vector; expressed in transfected cells; host or cells: BV-2 microglial cells transduced with pLenti-cMyc-cTlr2 lentivirions
T1 sequence (Q9QUN7 640-784): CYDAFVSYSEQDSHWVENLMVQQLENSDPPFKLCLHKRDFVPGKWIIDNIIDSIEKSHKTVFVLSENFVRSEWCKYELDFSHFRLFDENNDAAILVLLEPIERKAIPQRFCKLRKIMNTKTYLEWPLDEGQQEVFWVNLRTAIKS

5×FAD Tg mice = assay: Novel object recognition test in 5×FAD Tg mice; format: in vivo, mouse; conditions: vs untreated Tg or mTIDM-treated Tg mice
Description: FIG. 6 (A-N). Intranasal delivery of wtTIDM, but not mTIDM, peptide inhibits neuronal apoptosis in vivo in the hippocampus and improves memory and learning in Tg mice. […] After 30 d of treatment, mice were sacrificed and hippocampal sections were double-labeled for TUNEL & NeuN (A). […] Hippocampal extracts of all groups of mice (n=4) were immunoblotted for cleaved caspase 3 (D). Actin was run as loading control. E) Bands were scanned and values (cleaved caspase 3/Actin) are presented as relative to non-Tg control. […] Protein levels of PSD-95. NR2A and GluR1 were monitored in hippocampal extracts by Western blot (F). Bands were scanned and values (G, PSD-95/Actin; H, NR2A/Actin; I, GluR1/Actin) are presented as relative to non-Tg control. […] Mice were tested for Barnes maze (J, latency; K, number of errors made) and T maze (L, number of positive turns; M, number of negative turns). Short-term memory was also monitored by novel object recognition test, which is represented by discrimination index (N). Eight mice (n=8) were used in each group and results were analyzed by one-way ANOVA.
Novel object recognition task was performed to monitor the short term memory as described by others (58) and us (57). Briefly, during training, mice were placed in a square novel box (20 inches long by 8 inches high) surrounded with infrared sensor. […]

For `CC[C@H](C)[C@H](NC(=O)[C@H](CCCCN)NC(=O)[C@@H](NC(=O)[C@H](CCC(N)=O)NC(=O)[C@H](CCCNC(=N)N)NC(=O)[C@@H](N)CC(=O)O)[C@@H](C)CC)C(=O)N[C@@H](Cc1c[nH]c2ccccc12)C(=O)N[C@@H](Cc1ccccc1)C(=O)N[C@@H](CCC(N)=O)C(=O)N[C@@H](CC(N)=O)C(=O)N[C@@H](CCCNC(=N)N)C(=O)N[C@@H](CCCNC(=N)N)C(=O)N[C@@H](CCSC)C(=O)N[C@@H](CCCCN)C(=O)N[C@@H](Cc1c[nH]c2ccccc12)C(=O)N[C@@H](CCCCN)C(=O)N[C@@H](CCCCN)C(=O)N1CCC[C@H]1C(=O)NCC(=O)N[C@@H](C)C(=O)N[C@@H](Cc1c[nH]cn1)C(=O)N[C@@H](CCC(N)=O)C(=O)N[C@@H](CCCCN)C(=O)O` [wtTIDM, drqikiwfqnrrmkwkkPGAHQK], the “inhibition of expression of proinflammatory molecules (IL-1β, iNOS) induced by LTA” value (IL-1β and iNOS; 250 ng/ml LTA for 4 h) was “inhibited”, the “inhibition of expression of proinflammatory molecules (IL-1β, iNOS) induced by fibrillar Aβ” value (IL-1β and iNOS; 1 μM fibrillar Aβ1-42 for 4 h) was “inhibited” and the “inhibition of interaction between newly-formed cTLR2 and MyD88” value [1] was “inhibited”. The “short-term memory, novel object recognition (discrimination index)” value (5×FAD Tg mice) was “significant improvement”.

From patent US12251422B2, “Compositions and methods for treating neurological and other disorders” (Rush University Medical Center, priority 2018, dated 2025)
